Measurements published in patent US6750228B1, “Aromatic sulfone hydroxamic acid metalloprotease inhibitor” (priority 1997, dated 2004).
Where a name gives a salt, the structure may show the parent alone. Read-outs that look alike come from different tables or passages of the source.

Tests used:
[1] = tested on: advanced, rapidly progressive, treatment-refractory solid tumor cancers; details: cited from earlier work
[2] = target: T1, MMP-1 (Homo sapiens, UniProt P03956); assay: biochemical
T1 construct: made in house; host or cells: transfected HT-1080 cells (provided by Dr. Harold Welgus, Washington University)
T1 sequence (P03956 100-469): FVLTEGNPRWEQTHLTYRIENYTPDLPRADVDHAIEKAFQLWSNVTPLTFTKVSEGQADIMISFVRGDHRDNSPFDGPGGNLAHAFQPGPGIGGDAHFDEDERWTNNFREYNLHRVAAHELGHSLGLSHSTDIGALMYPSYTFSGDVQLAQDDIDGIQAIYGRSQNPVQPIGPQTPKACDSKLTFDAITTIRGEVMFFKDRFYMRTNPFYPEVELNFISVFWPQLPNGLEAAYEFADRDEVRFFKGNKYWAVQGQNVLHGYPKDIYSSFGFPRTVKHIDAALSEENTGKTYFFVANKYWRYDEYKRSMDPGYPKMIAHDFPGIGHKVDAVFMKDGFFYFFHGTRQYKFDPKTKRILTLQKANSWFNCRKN
Summary of the method: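 APMA- or trypsin-activated human MMPs (MMP-1 from transfected HT-1080 cells, MMP-2 from transfected cells) preincubated with inhibitor in 1% DMSO at room temperature, then 4 μM MCA-Pro-Leu-Gly-Leu-Dpa-Ala-Arg-NH2 added in Tris/NaCl/CaCl2 buffer pH 7.5. IC50 from fluorescence reduction versus inhibitor concentration.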

[3] = target: T2, MMP-13 (Homo sapiens, UniProt P45452); assay: biochemical
T2 construct: made in house; host or cells: baculovirus / insect cells
Summary of the method: (§1)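 APMA- or trypsin-activated enzymes were preincubated with inhibitor for 5 min at room temperature, then the fluorogenic substrate MCA-Pro-Leu-Gly-Leu-Dpa-Ala-Arg-NH2 was added to a final 4 μM.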

[4] = target: T3, MMP-2 (Homo sapiens, UniProt P08253); assay: biochemical
T3 construct: made in house; provided by Dr. Gregory Goldberg, Washington University
T3 sequence (P08253 110-660): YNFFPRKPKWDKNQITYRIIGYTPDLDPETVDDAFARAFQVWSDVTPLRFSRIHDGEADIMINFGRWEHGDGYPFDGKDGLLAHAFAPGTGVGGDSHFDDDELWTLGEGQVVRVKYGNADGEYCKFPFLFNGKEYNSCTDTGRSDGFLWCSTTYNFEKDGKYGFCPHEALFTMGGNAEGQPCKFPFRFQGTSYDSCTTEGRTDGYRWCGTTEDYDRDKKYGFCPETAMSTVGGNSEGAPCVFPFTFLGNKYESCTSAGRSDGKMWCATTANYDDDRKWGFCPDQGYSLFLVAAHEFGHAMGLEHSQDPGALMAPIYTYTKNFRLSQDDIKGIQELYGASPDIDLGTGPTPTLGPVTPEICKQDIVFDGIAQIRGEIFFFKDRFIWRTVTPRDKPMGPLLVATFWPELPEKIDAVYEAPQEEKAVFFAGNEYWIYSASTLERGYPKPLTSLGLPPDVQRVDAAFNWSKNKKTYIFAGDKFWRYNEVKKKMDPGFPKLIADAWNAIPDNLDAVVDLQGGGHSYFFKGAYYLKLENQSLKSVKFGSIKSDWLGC
Summary of the method: as §1

[5] = recombinant human MMP-13, MCA peptide substrate 4 μM, pH 7.5, room temperature, read-out: MMP-13 IC50
[6] = recombinant human MMP-1, MCA peptide substrate 4 μM, pH 7.5, room temperature, read-out: MMP-1 IC50
[7] = recombinant human MMP-2, MCA peptide substrate 4 μM, pH 7.5, room temperature, read-out: MMP-2 IC50

SMILES	IC50 [3, 5] [nM]	IC50 [2, 6] [nM]	IC50 [4, 7] [nM]	also measured
CNC(=O)[C@@H](NC(=O)[C@H](CC(C)C)[C@H](O)C(=O)NO)C(C)(C)C [marimastat, Marimastat]				most common drug-related toxicity ([1]; clinical trials in patients): musculoskeletal pain and stiffness; cancer-specific antigens used as surrogate markers for biological activity ([1]; patients with colorectal, pancreatic, ovarian, prostate cancers): dose-related reduction in the rise of cancer-specific antigens
COc1ccc(C(=O)N2CCN(c3ccc(S(=O)(=O)C4(C(=O)NO)CCOCC4)cc3)CC2)cc1 [Example 594]	570			IC50 [2]: > 10000 nM; IC50 ([4]; MMP-2 IC50 (nM)): 650 nM
O=C(NO)C1(S(=O)(=O)c2ccc(N3CCC(S(=O)(=O)c4ccccc4)CC3)cc2)CCN(C2CC2)CC1 [Example 409]	22.4	> 10000	275	
O=C(C1CCN(c2ccc(S(=O)(=O)C3(C(=O)NO)CCOCC3)cc2)CC1)N1CCN(c2ccncc2)CC1 [Example 37]				IC50 ([2]; read-out: MMP-1 IC50): > 10000 nM; IC50 ([3]; MMP-13 IC50 (nM), recombinant human MMP-13, MCA peptide substrate 4 μM, pH 7.5, room temperature): 30 nM; IC50 ([4]; read-out: MMP-2 IC50): 1750 nM
COCCN1CCC(C(=O)NO)(S(=O)(=O)c2ccc(N3CCC(C(=O)Nc4cccc(OC(F)(F)F)c4)CC3)cc2)CC1 [Example 249, N-Hydroxy-1-(2-methoxyethyl)-4-[[4-[4-[[[3-(trifluoromethoxy)phenyl]amino]carbonyl]-1-piperidinyl]phenyl]sulfonyl]-4-piperidinecarboxamide, Monohydrochloride]	13	> 10000	235	
CC(C)CCOCc1ccc(COC2CCN(c3ccc(S(=O)(=O)C4(C(=O)NO)CCOCC4)cc3)CC2)cc1 [Example 600]	9	> 10000	600	
O=C(C1CCN(c2ccc(S(=O)(=O)C3(C(=O)NO)CCOCC3)cc2)CC1)N1CCN(c2ncccc2C(F)(F)F)CC1 [Example 33]				IC50 ([2]; read-out: MMP-1 IC50): > 10000 nM; IC50 ([3]; read-out: MMP-13 IC50): 20 nM; IC50 ([4]; read-out: MMP-2 IC50): 4500 nM
CC(C)N1CCC(C(=O)NO)(S(=O)(=O)c2ccc(Oc3ccc(OC(F)(F)F)cc3)cc2)CC1 [Example 453]	0.4	> 10000	35	
CC1CN(c2ccc(S(=O)(=O)C3(C(=O)NO)CCOCC3)cc2)CCC1OCc1ccccc1 (centres unmarked) [Example 581]	27	> 10000	480	
CC1CC(C)CN(C(=O)C2CCN(c3ccc(S(=O)(=O)C4(C(=O)NO)CCN(C(=O)CN5CCCC5)CC4)cc3)CC2)C1 (centres unmarked) [Example 298]	40	> 10000	> 10000	
O=C(Nc1ccc(F)cc1F)N1CCC(C(=O)NO)(S(=O)(=O)c2ccc(Oc3ccc(OC(F)(F)F)cc3)cc2)CC1 [Example 363]	0.4	8800	0.2	
CCNCc1ccc(COC2CCN(c3ccc(S(=O)(=O)C4(C(=O)NO)CCOCC4)cc3)CC2)cc1 [Example 476]	25.4	> 10000	140	
O=C(NO)C1(S(=O)(=O)c2ccc(N3CCC(O)CC3)cc2)CCOCC1 [Example 564]	150	> 10000	550	
O=C(NO)C1(S(=O)(=O)c2ccc(Oc3ccc(OC(F)(F)F)cc3)cc2)CCN(Cc2cc(Cl)cc(Cl)c2)CC1 [Example 348]	16.5	> 10000	0.8	
CC(C)NC(=O)OC1CCN(c2ccc(S(=O)(=O)C3(C(=O)NO)CCOCC3)cc2)CC1 [Example 517]	14	> 10000	1100	
O=C(NO)C1(S(=O)(=O)c2ccc(Oc3ccncc3)cc2)CCS(=O)(=O)CC1 [Example 160]	300	> 10000	90	
O=C(c1ccc(F)cc1)C1CCN(c2ccc(S(=O)(=O)C3(C(=O)NO)CCS(=O)(=O)CC3)cc2)CC1 [Example 161]				IC50 ([2]; read-out: MMP-1 IC50): > 10000 nM; IC50 ([3]; read-out: MMP-13 IC50): 32.6 nM; IC50 ([4]; read-out: MMP-2 IC50): 900 nM
O=C(c1ccco1)N1CCC(C(=O)NO)(S(=O)(=O)c2ccc(N3CCC(OCc4ccc(F)cc4)CC3)cc2)CC1 [Example 424]	5.5	> 10000	80	
COc1ccc(OC2CCN(c3ccc(S(=O)(=O)C4(C(=O)NO)CCOCC4)cc3)CC2)cc1OC [Example 616]	4	> 10000	3.7	
COc1cccc(CO[C@@H]2CCN(c3ccc(S(=O)(=O)C4(C(=O)NO)CCN(C5CC5)CC4)cc3)C2)c1 [Example 398]	7	> 10000	70	
O=C(C1CCN(c2ccc(S(=O)(=O)C3(C(=O)NO)CCOCC3)cc2)CC1)N1CCN(CCN2CCOCC2)CC1 [Example 42]				IC50 ([2]; read-out: MMP-1 IC50): > 10000 nM; IC50 ([3]; read-out: MMP-13 IC50): 82.5 nM; IC50 ([4]; read-out: MMP-2 IC50): > 10000 nM
C=CCCC(=O)C1CCN(c2ccc(S(=O)(=O)C3(C(=O)NO)CCOCC3)cc2)CC1 [Example 758]	5	> 10000	34.7	
O=C(Nc1ccc(C(F)(F)F)cc1)N1CCC(C(=O)NO)(S(=O)(=O)c2ccc(Oc3ccc(OC(F)(F)F)cc3)cc2)CC1 [Example 366]	13	> 10000	2.5	
CCCCOC1CCN(c2ccc(S(=O)(=O)C3(C(=O)NO)CCN(C4CC4)CC3)cc2)CC1 [Example 440]	26.8	> 10000	240	
Cc1ccc(C(=O)C2CCN(c3ccc(S(=O)(=O)C4(C(=O)NO)CCOCC4)cc3)CC2)cc1F [Example 736]	0.9	> 10000	145	
O=C(NO)C1(S(=O)(=O)c2ccc(N3CCN(c4ccc(Cl)cc4)CC3)cc2)CCOCC1 [Example 659]	1	> 10000	3.7	
